{"source": "ChEMBL document CHEMBL1201862", "about": "“PubChem BioAssay data set” (2004)", "type_in_all_cases": "functional", "key": {"[1]": {"test": "Luminescence Cell-Based Dose Confirmation HTS to Identify Activators of 5'UTR Stem-Loop Driven Alpha-Synuclein mRNA Translation in H4 Neuroglioblastoma Cells. [Related pubchem assays: 1829 (Project Summary), 1814 (Primary HTS)]"}, "[2]": {"target": "MAP/microtubule affinity-regulating kinase 3 (Homo sapiens, UniProt P27448)", "sequence (P27448 whole entry)": "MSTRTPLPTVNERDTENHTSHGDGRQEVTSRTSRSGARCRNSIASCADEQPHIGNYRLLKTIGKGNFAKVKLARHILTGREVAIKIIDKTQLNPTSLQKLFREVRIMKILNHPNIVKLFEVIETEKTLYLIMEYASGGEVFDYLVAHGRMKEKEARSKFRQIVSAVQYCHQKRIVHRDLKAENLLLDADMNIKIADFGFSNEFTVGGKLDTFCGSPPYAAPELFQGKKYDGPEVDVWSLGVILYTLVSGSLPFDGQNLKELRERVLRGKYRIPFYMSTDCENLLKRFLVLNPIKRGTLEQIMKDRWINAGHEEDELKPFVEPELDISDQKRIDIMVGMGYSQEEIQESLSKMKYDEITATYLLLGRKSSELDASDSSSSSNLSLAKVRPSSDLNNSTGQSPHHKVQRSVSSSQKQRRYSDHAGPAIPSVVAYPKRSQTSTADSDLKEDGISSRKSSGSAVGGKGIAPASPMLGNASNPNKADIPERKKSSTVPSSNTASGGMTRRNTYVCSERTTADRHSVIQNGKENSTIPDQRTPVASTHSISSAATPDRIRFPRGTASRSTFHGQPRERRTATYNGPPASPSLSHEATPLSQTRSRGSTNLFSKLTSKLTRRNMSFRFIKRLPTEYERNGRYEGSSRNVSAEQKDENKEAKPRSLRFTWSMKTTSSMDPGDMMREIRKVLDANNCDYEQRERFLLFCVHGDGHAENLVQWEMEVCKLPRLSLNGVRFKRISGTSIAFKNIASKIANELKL"}, "[3]": {"target": "Mitogen-activated protein kinase 12 (Homo sapiens, UniProt P53778)", "sequence (P53778 whole entry)": "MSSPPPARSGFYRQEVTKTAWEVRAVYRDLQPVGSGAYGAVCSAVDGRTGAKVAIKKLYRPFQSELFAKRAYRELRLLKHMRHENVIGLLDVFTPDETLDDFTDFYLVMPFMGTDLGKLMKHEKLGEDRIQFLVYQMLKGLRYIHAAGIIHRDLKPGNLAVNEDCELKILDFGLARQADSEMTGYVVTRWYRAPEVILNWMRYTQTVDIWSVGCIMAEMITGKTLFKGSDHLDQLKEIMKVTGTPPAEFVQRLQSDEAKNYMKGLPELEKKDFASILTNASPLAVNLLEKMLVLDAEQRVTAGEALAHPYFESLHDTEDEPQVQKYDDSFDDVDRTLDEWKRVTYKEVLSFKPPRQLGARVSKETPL"}}, "note": "Calls of active or inactive are those of the source."}
{"smiles": "O=C1C2=[N+]([O-])[C@H]3CCCC[C@H]3[N+]([O-])=C2c2ccccc21", "values": [{"measurement": "EC50", "setting": "[1]", "value": "> 120000 nM (not active)"}]}
{"smiles": "NC1CCC(Nc2nccc(-c3c[nH]c4ncccc34)n2)CC1", "note": "(stereo not drawn)", "values": [{"measurement": "Ki", "setting": "[2]", "value": "50.1 nM (active)"}, {"measurement": "Ki", "setting": "[3]", "value": "794 nM (active)"}]}
